According to US20120302573A1, “METHODS OF INHIBITING PRO MATRIX METALLOPROTEINASE ACTIVATION” (priority 2011, published 2012):
Where “and” joins values, the source holds several entries; their conditions need not be identical. Equal values may be shown once.

How the values were obtained:
MMP9 = biological target: T1, MMP9 (Rattus norvegicus, UniProt P50282); test: Western blot of MMP9 forms in ankles of rats with SCW-induced arthritis; type: in vivo; conditions: day 26, mAb-L51/82
T1 construct: Pro and active MMP9 were abundantly present in ankles of SCW-induced vehicle-treated rats; from tissue; host or cells: tibia-tarsus joints (ankles) of female Lewis rats
Method: Hind-limbs were skinned, severed just above the tibia-tarsus joint and below the metatarsals, and the tibia-tarsus joints (ankles) were weighed, snap frozen and pulverized on dry ice using a hammer and anvil. The pulverized tissue was suspended in 3 volumes (w:v) of ice-cold homogenization buffer containing 50 mM Tris pH 7.5, 150 mM NaCl, 5 mM EDTA, 1% Triton×100, 0.05% Brij 30, 10% dimethylsulfoxide and Complete EDTA-free Protease Inhibitor Cocktail (Roche Diagnostics). The suspended tissue was homogenized sequentially with a Kinematica AG Polytron and a Dounce homogenizer. Homogenates were centrifuged at 16,000×g for 10 min at 4° C. and the soluble fractions were saved. Dimethylsulfoxide was removed from a portion of each soluble fraction using PD MiniTrap™ G-25 desalting columns (GE Healthcare). Homogenates (0.25 mL), free of DMSO, were diluted with an equal volume of binding buffer (i.e., homogenization buffer without dimethylsufoxide) and adjusted to contain 50 μL of a 50% slurry of gelatin-conjugated sepharose. Following 2 hours of rotation at 4° C. the beads were washed twice in binding buffer and eluted in 100 μL 2×-reducing Laemmli buffer with heating to 95° C. for 5 minutes. […]

[1] = system: rats with SCW-induced arthritis; test: Efficacy in rats with SCW-induced arthritis (ankle thickness, clinical score); type: in vivo, rat
Method: To induce arthritis, Female Lewis (LEW/N) rats, 5-6 weeks of age (80-100 g) were injected (i.p.) with SCW PG-PS as described above. Eighteen days later, arthritis was well established. Calipers were used to measure the width (anterior to posterior surface) of the left and right hind ankles of each rat. Each ankle was measured 3 times and averaged, and treatment groups were randomized based on ankle thickness (Table 7). Commencing on day 18, randomized groups of arthritic rats (n=5 rats/group) received vehicle or 5, 20, or 50 mg/kg Compound α BID by oral gavage. Vehicle consisted of an aqueous mixture containing 2% (v:v) N-methylpyrrolidone, 5% (v:v) glycerine, and 20% (w:v) captisol. Treatment continued daily through the morning of day 26.
By day 18 mean ankle thickness was increased an average of >4.4 mm compared to disease free rats. Rats treated with vehicle alone continued to gradually develop a more severe arthritis based on ankle thickness measurements over the eight-day treatment period (Table 7). […] By day 26, the disease associated increase in ankle thickness had been reduced 27, 37, and 46 percent by 5, 20, and 50 mg/kg Compound α, respectively.
Hind paw inflammation clinical scores were assigned based on swelling and erythema.

[2] = biological target: T2, MMP9 mediated gelatinase activity (Rattus norvegicus, UniProt P50282); test: In situ zymography of gelatinase activity in livers of SCW-induced rats dosed with compound; type: in vivo; conditions: for Liver gelatinase Intensity, Mean / Liver gelatinase Intensity, individual rats: Day 25-28
T2 construct: from tissue; host or cells: liver cryosections of female Lewis rats
Source text: In situ zymography provides an alternative approach to assess active MMP9 in tissues (J Histochem Cytochem; 2004; 52:711-722). Tissue sections are overlain with fluorescein-conjugated gelatin wherein the conjugation is sufficiently dense to cause the fluorescein to be dye-quenched (DQ). Proteolytic degradation of the DQ-gelatin releases the fluorescein from the quenching effect giving rise to bright green fluorescence at the site of degradation. Because in situ zymography requires the use of frozen sections, calcified tissues are problematic. However, an additional feature of the SCW arthritis model is the development of hepatic granulomatous disease (J Immunol; 1986; 137:2199-2209), and MMP9 reportedly plays a role in macrophage recruitment in the granulomas response to mycobacteria (Infect Immun; 2006; 74:6135-6144). Consequently, granulomatous livers from SCW-treated rats were assessed for active MMP9 by in situ zymography.
As described above, Female Lewis (LEW/N) rats, 5-6 weeks of age (80-100 g) were injected (i.p.) with saline or SCW PG-PS. On day 28, when the granulomatous response was well established, animals were sacrificed and livers were frozen in OCT cryo-sectioning medium and 10 μm sections were cut on a Cryome HM 500 M cryotome and mounted on glass microscope slides. Sections were air dried briefly. MMP9 was confirmed as the source of the gelatinase activity in the liver by treating liver sections with monoclonal antibodies directed against the active site of the two major gelatinases MMP9 and MMP2. Liver sections overlain with 50 μL of 100 μg/mL neutralizing mouse monoclonal antibodies directed against MMP9 (Calbiochem, clone 6-6B), or MMP2 (Millipore, clone CA-4001), or with PBS for 1 hr at room temperature. Tissues were rinsed once with PBS, blotted, and briefly air dried and then overlain with DQ-gelatin (Invitrogen) dissolved to 1 mg/mL in deionized water and then diluted 1:10 in 1% wt/vol low gelling point agarose type VII (Sigma) in PBS. The sections were covered with coverslips, incubated in the dark at room temperature for 20 min, and imaged on an Olympus IX80 inverted microscope fitted with fluorescence optics, using SlideBook™ imaging software (Intelligent Imaging Innovations, Inc., Philadelphia, Pa.; version 5.0). Fluorescence intensity was determined (Table 9). When compared to a saline-treated rat, gelatinase activity was abundantly expressed in granulomatous liver sections obtained from a rat with SCW arthritis.
Next, liver in situ zymography was used to assess the relative presence of active MMP9 in rats dosed with vehicle vs. Compound α. Female Lewis (LEW/N) rats, 5-6 weeks of age (80-100 g) were injected (i.p.) with saline or SCW PG-PS. Commencing on day 25, randomized groups of rats (n=3 rats/group) received vehicle or 20 or 50 mg/kg Compound α BID by oral gavage. Vehicle consisted of an aqueous mixture containing 2% (v:v) N-methylpyrrolidone, 5% (v:v) glycerine, and 20% (w:v) captisol. Treatment continued daily through the morning of day 28.
Four hrs after the AM dose on day 28, rats were sacrificed and livers assessed for active MMP9 by in situ zymography (Table 10). Gelatinase activity was increased markedly in SCW-induced rats, but activity was reduced by approximately 80% in animals treated with 50 mg/kg Compound α.

T2 sequence (P50282 108-708): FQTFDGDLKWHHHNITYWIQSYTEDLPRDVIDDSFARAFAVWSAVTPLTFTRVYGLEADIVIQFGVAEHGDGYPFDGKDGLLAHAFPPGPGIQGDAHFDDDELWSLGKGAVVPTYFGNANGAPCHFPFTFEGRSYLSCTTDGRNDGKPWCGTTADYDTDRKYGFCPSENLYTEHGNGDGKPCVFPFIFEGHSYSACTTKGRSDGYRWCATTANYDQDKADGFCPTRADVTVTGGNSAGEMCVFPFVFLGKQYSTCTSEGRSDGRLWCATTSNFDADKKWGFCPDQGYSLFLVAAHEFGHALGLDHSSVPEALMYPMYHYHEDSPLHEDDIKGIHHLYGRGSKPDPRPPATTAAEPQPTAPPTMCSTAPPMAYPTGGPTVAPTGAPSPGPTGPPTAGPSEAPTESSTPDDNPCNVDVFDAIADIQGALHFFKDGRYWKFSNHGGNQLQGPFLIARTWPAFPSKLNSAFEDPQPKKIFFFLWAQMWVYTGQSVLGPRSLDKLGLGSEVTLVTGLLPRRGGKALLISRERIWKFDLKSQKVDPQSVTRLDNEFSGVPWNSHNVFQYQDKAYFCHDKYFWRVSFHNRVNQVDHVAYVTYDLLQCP
T1 sequence (P50282 108-708): as above

SMILES: Cc1nc(C)c(-c2csc(Nc3cc(S(N)(=O)=O)ccc3OC(C)C)n2)s1 [Compound α, 3-(2′,4′-Dimethyl-[4,5′]bithiazolyl-2-ylamino)-4-isopropoxy-benzenesulfonamide.HBr]
- abundance of proMMP9 in ankles (MMP9): did not reduce
- Day 26 % Inh of disease associated increase in ankle thickness ([1]; 5 mg/kg BID oral): 27%
- Day 26 % Inh of disease associated increase in ankle thickness ([1]; 20 mg/kg BID oral): 37%
- Day 26 % Inh of disease associated increase in ankle thickness ([1]; 50 mg/kg BID oral): 46%
- Liver gelatinase Intensity, Mean ([2]; 20 mg/kg BID oral): 55.2 RLU × 10^6
- Liver gelatinase Intensity, individual rats ([2]; 20 mg/kg BID oral): 43.0 RLU × 10^6 and 69.0 RLU × 10^6 and 53.7 RLU × 10^6
- Liver gelatinase Intensity, Mean ([2]; 50 mg/kg BID oral): 11.1 RLU × 10^6
- Liver gelatinase Intensity, individual rats ([2]; 50 mg/kg BID oral): 3.2 RLU × 10^6 and 25.6 RLU × 10^6 and 4.5 RLU × 10^6
- reduction of liver gelatinase activity ([2]; 50 mg/kg BID oral, day 28): approximately 80%
